# Assay results as given in patent publication US8765944B2, “Compounds for the treatment of hepatitis C” (priority 2010, dated 2014).
# System: HCV pseudoparticles
# Test: HCV pseudoparticle infection assay (luciferase reporter, Huh7 cells)
# Type: cell-based, HCV (genotype 1b E1 and E2 envelope)
# Settings: Hepatitis C virus, genotype 1b, Huh-7, 48 h, HCV pseudoparticles (genotype 1b), luciferase activity 2 days after infection
row,Structure (SMILES),EC50 [nM]
1,CC(C)(CNC(=O)c1ccc(Nc2nc(NC3(c4ccc(Cl)cc4)CC3)nc(OCC(F)(F)F)n2)cc1)C(=O)NS(=O)(=O)C1CC1 [Example 2084],6
2,O=C(NS(=O)(=O)c1ccc(Nc2nc(NC3(c4ccc(Cl)cc4)CC3)nc(OCC(F)(F)F)n2)cc1)C1(CN2CCCCC2)CC1 [Example 3002],477
3,O=C(NS(=O)(=O)c1ccc(Nc2nc(NC3(c4ccc(Cl)cc4)CC3)nc(OCC(F)(F)F)n2)cc1)C1(CN2CCOCC2)CC1 [Example 3003],822
4,CCN(CC)CC1(C(=O)NS(=O)(=O)c2ccc(Nc3nc(NC4(c5ccc(Cl)cc5)CC4)nc(OCC(F)(F)F)n3)cc2)CC1 [Example 3004],1640
5,CN(C)CC1(C(=O)NS(=O)(=O)c2ccc(Nc3nc(NC4(c5ccc(Cl)cc5)CC4)nc(OCC(F)(F)F)n3)cc2)CC1 [Example 3006],2700
6,CC(C)(C)CNCC1(C(=O)NS(=O)(=O)c2ccc(Nc3nc(NC4(c5ccc(Cl)cc5)CC4)nc(OCC(F)(F)F)n3)cc2)CC1 [Example 3007],2800
7,O=C(CN1CCCC1=O)NCC1(C(=O)NS(=O)(=O)c2ccc(Nc3nc(NC4(c5ccc(Cl)cc5)CC4)nc(OCC(F)(F)F)n3)cc2)CC1 [Example 3008],976
8,CC(C)(C)OC(=O)N1CCC[C@H]1C(=O)NS(=O)(=O)CCNC(=O)c1ccc(Nc2nc(NC3(c4ccc(Cl)cc4)CC3)nc(OCC(F)(F)F)n2)cc1 [Example 4004],2.6

# Same assay, conditions: Hepatitis C virus, genotype 1b, Huh-7, 48 h, HCV pseudoparticles (genotype 1b), luciferase activity 2 days after infection, class
row,Structure (SMILES),EC50 [nM]
1,O=C(CCCNC(=O)c1ccc(Nc2nc(NC3(c4ccc(Cl)cc4)CC3)nc(OCC(F)(F)F)n2)cc1)NCCC(=O)N[C@]1(C(=O)NS(=O)(=O)C2CC2)C[C@H]1C1CC1 [Example 2064],0.5 to 100
2,C=C[C@@H]1C[C@]1(NC(=O)C1(CNC(=O)c2ccc(Nc3nc(NC4(c5ccc(Cl)cc5)CC4)nc(OCC(F)(F)F)n3)cc2)CC1)C(=O)NS(=O)(=O)C1CC1 [Example 2065],0.5 to 100
3,O=C(NCC1(C(=O)N[C@]2(C(=O)NS(=O)(=O)C3CC3)C[C@H]2C2CC2)CC1)c1ccc(Nc2nc(NC3(c4ccc(Cl)cc4)CC3)nc(OCC(F)(F)F)n2)cc1 [Example 2066],0.5 to 100
4,O=C(NCC1(C(=O)NC2(C(=O)NS(=O)(=O)C3CC3)CC2)CC1)c1ccc(Nc2nc(NC3(c4ccc(Cl)cc4)CC3)nc(OCC(F)(F)F)n2)cc1 [Example 2067],0.5 to 100
5,C=C[C@@H]1C[C@]1(NC(=O)C1(CNC(=O)c2ccc(Nc3nc(NC4(c5ccc(Cl)cc5)CC4)nc(OCC(F)(F)F)n3)cc2)CC1)C(=O)NS(=O)(=O)C(C)(C)C [Example 2068],0.5 to 100
6,C=C[C@@H]1C[C@]1(NC(=O)C1(CNC(=O)c2ccc(Nc3nc(NC4(c5ccc(Cl)cc5)CC4)nc(OCC(F)(F)F)n3)cc2)CC1)C(=O)NS(=O)(=O)C1CCC1 [Example 2069],0.5 to 100
7,O=C(NCC1(C(=O)NS(=O)(=O)C2CC2)CC1)c1ccc(Nc2nc(NC3(c4ccc(Cl)cc4)CC3)nc(OCC(F)(F)F)n2)cc1 [Example 2070],0.5 to 100
8,CS(=O)(=O)NC(=O)C1(CNC(=O)c2ccc(Nc3nc(NC4(c5ccc(Cl)cc5)CC4)nc(OCC(F)(F)F)n3)cc2)CC1 [Example 2071],0.5 to 100
9,C=CS(=O)(=O)NC(=O)C1(CNC(=O)c2ccc(Nc3nc(NC4(c5ccc(Cl)cc5)CC4)nc(OCC(F)(F)F)n3)cc2)CC1 [Example 2072],0.5 to 100
10,CCS(=O)(=O)NC(=O)C1(CNC(=O)c2ccc(Nc3nc(NC4(c5ccc(Cl)cc5)CC4)nc(OCC(F)(F)F)n3)cc2)CC1 [Example 2073],0.5 to 100
11,CC(C)S(=O)(=O)NC(=O)C1(CNC(=O)c2ccc(Nc3nc(NC4(c5ccc(Cl)cc5)CC4)nc(OCC(F)(F)F)n3)cc2)CC1 [Example 2074],0.5 to 100
12,CC(C)(C)S(=O)(=O)NC(=O)C1(CNC(=O)c2ccc(Nc3nc(NC4(c5ccc(Cl)cc5)CC4)nc(OCC(F)(F)F)n3)cc2)CC1 [Example 2075],0.5 to 100
13,CCC1(S(=O)(=O)NC(=O)C2(CNC(=O)c3ccc(Nc4nc(NC5(c6ccc(Cl)cc6)CC5)nc(OCC(F)(F)F)n4)cc3)CC2)CC1 [Example 2076],0.5 to 100
14,CCCC1(S(=O)(=O)NC(=O)C2(CNC(=O)c3ccc(Nc4nc(NC5(c6ccc(Cl)cc6)CC5)nc(OCC(F)(F)F)n4)cc3)CC2)CC1 [Example 2077],0.5 to 100
15,CN(C)S(=O)(=O)NC(=O)C1(CNC(=O)c2ccc(Nc3nc(NC4(c5ccc(Cl)cc5)CC4)nc(OCC(F)(F)F)n3)cc2)CC1 [Example 2078],0.5 to 100
16,CC(C)N(C(=O)C1(CNC(=O)c2ccc(Nc3nc(NC4(c5ccc(Cl)cc5)CC4)nc(OCC(F)(F)F)n3)cc2)CC1)S(N)(=O)=O [Example 2079],0.5 to 100
17,C=C[C@@H]1C[C@]1(NC(=O)C(C)(C)CNC(=O)c1ccc(Nc2nc(NC3(c4ccc(Cl)cc4)CC3)nc(OCC(F)(F)F)n2)cc1)C(=O)NS(=O)(=O)C1CC1 [Example 2080],0.5 to 100
18,CC(C)(CNC(=O)c1ccc(Nc2nc(NC3(c4ccc(Cl)cc4)CC3)nc(OCC(F)(F)F)n2)cc1)C(=O)N[C@]1(C(=O)NS(=O)(=O)C2CC2)C[C@H]1C1CC1 [Example 2081],0.5 to 100
19,C=C[C@@H]1C[C@]1(NC(=O)C(C)(C)CNC(=O)c1ccc(Nc2nc(NC3(c4ccc(Cl)cc4)CC3)nc(OCC(F)(F)F)n2)cc1)C(=O)NS(=O)(=O)C(C)(C)C [Example 2082],0.5 to 100
20,C=C[C@@H]1C[C@]1(NC(=O)C(C)(C)CNC(=O)c1ccc(Nc2nc(NC3(c4ccc(Cl)cc4)CC3)nc(OCC(F)(F)F)n2)cc1)C(=O)NS(=O)(=O)C1CCC1 [Example 2083],0.5 to 100
21,CC(C)(CNC(=O)c1ccc(Nc2nc(NC3(c4ccc(Cl)cc4)CC3)nc(OCC(F)(F)F)n2)cc1)C(=O)NS(=O)(=O)C1CC1 [Example 2084],0.5 to 100
22,CC(C)(CNC(=O)c1ccc(Nc2nc(NC3(c4ccc(Cl)cc4)CC3)nc(OCC(F)(F)F)n2)cc1)C(=O)NS(C)(=O)=O [Example 2085],0.5 to 100
23,C=CS(=O)(=O)NC(=O)C(C)(C)CNC(=O)c1ccc(Nc2nc(NC3(c4ccc(Cl)cc4)CC3)nc(OCC(F)(F)F)n2)cc1 [Example 2086],0.5 to 100
24,CCS(=O)(=O)NC(=O)C(C)(C)CNC(=O)c1ccc(Nc2nc(NC3(c4ccc(Cl)cc4)CC3)nc(OCC(F)(F)F)n2)cc1 [Example 2087],0.5 to 100
25,CC(C)S(=O)(=O)NC(=O)C(C)(C)CNC(=O)c1ccc(Nc2nc(NC3(c4ccc(Cl)cc4)CC3)nc(OCC(F)(F)F)n2)cc1 [Example 2088],0.5 to 100
26,CC(C)(CNC(=O)c1ccc(Nc2nc(NC3(c4ccc(Cl)cc4)CC3)nc(OCC(F)(F)F)n2)cc1)C(=O)NS(=O)(=O)C1CCC1 [Example 2089],0.5 to 100

row,Structure (SMILES),EC50 [nM]
1,CC(C)(CNC(=O)c1ccc(Nc2nc(NC3(c4ccc(Cl)cc4)CC3)nc(OCC(F)(F)F)n2)cc1)C(=O)NS(=O)(=O)C(C)(C)C [Example 2090],0.5 to 100
2,CCC1(S(=O)(=O)NC(=O)C(C)(C)CNC(=O)c2ccc(Nc3nc(NC4(c5ccc(Cl)cc5)CC4)nc(OCC(F)(F)F)n3)cc2)CC1 [Example 2091],0.5 to 100
3,CCCC1(S(=O)(=O)NC(=O)C(C)(C)CNC(=O)c2ccc(Nc3nc(NC4(c5ccc(Cl)cc5)CC4)nc(OCC(F)(F)F)n3)cc2)CC1 [Example 2092],0.5 to 100
4,CN(C)S(=O)(=O)NC(=O)C(C)(C)CNC(=O)c1ccc(Nc2nc(NC3(c4ccc(Cl)cc4)CC3)nc(OCC(F)(F)F)n2)cc1 [Example 2093],0.5 to 100
5,COCCS(=O)(=O)NC(=O)C(C)(C)CNC(=O)c1ccc(Nc2nc(NC3(c4ccc(Cl)cc4)CC3)nc(OCC(F)(F)F)n2)cc1 [Example 2094],0.5 to 100
6,CC(C)(CNC(=O)c1ccc(Nc2nc(NC3(c4ccc(Cl)cc4)CC3)nc(OCC(F)(F)F)n2)cc1)C(=O)NC1(C(=O)NS(=O)(=O)C2CC2)CC1 [Example 2095],0.5 to 100
7,CC(C)(C)OC(=O)NC[C@H](NC(=O)c1ccc(Nc2nc(NC3(c4ccc(Cl)cc4)CC3)nc(OCC(F)(F)F)n2)cc1)C(=O)NS(=O)(=O)C1CC1 [Example 2096],0.5 to 100
8,O=C(NS(=O)(=O)c1ccc(Nc2nc(NC3(c4ccc(Cl)cc4)CC3)nc(OCC(F)(F)F)n2)cc1)C1(CN2CCCC2)CC1 [Example 3001],1000 to 5000
9,O=C(NS(=O)(=O)c1ccc(Nc2nc(NC3(c4ccc(Cl)cc4)CC3)nc(OCC(F)(F)F)n2)cc1)C1(CN2CCCCC2)CC1 [Example 3002],100 to 1000
10,O=C(NS(=O)(=O)c1ccc(Nc2nc(NC3(c4ccc(Cl)cc4)CC3)nc(OCC(F)(F)F)n2)cc1)C1(CN2CCOCC2)CC1 [Example 3003],100 to 1000
11,CCN(CC)CC1(C(=O)NS(=O)(=O)c2ccc(Nc3nc(NC4(c5ccc(Cl)cc5)CC4)nc(OCC(F)(F)F)n3)cc2)CC1 [Example 3004],1000 to 5000
12,CC(C)NCC1(C(=O)NS(=O)(=O)c2ccc(Nc3nc(NC4(c5ccc(Cl)cc5)CC4)nc(OCC(F)(F)F)n3)cc2)CC1 [Example 3005],1000 to 5000
13,CN(C)CC1(C(=O)NS(=O)(=O)c2ccc(Nc3nc(NC4(c5ccc(Cl)cc5)CC4)nc(OCC(F)(F)F)n3)cc2)CC1 [Example 3006],1000 to 5000
14,CC(C)(C)CNCC1(C(=O)NS(=O)(=O)c2ccc(Nc3nc(NC4(c5ccc(Cl)cc5)CC4)nc(OCC(F)(F)F)n3)cc2)CC1 [Example 3007],1000 to 5000
15,O=C(CN1CCCC1=O)NCC1(C(=O)NS(=O)(=O)c2ccc(Nc3nc(NC4(c5ccc(Cl)cc5)CC4)nc(OCC(F)(F)F)n3)cc2)CC1 [Example 3008],100 to 1000
16,O=C(CCN1CCS(=O)(=O)CC1)NCC1(C(=O)NS(=O)(=O)c2ccc(Nc3nc(NC4(c5ccc(Cl)cc5)CC4)nc(OCC(F)(F)F)n3)cc2)CC1 [Example 3009],1000 to 5000
17,CC(=O)NS(=O)(=O)CCNC(=O)c1ccc(Nc2nc(NC3(c4ccc(Cl)cc4)CC3)nc(OCC(F)(F)F)n2)cc1 [Example 4000],0.5 to 100
18,CC(C)C(=O)NS(=O)(=O)CCNC(=O)c1ccc(Nc2nc(NC3(c4ccc(Cl)cc4)CC3)nc(OCC(F)(F)F)n2)cc1 [Example 4001],0.5 to 100
19,O=C(NCCS(=O)(=O)NC(=O)C1CC1)c1ccc(Nc2nc(NC3(c4ccc(Cl)cc4)CC3)nc(OCC(F)(F)F)n2)cc1 [Example 4002],0.5 to 100
20,CC(F)(F)CC(=O)NS(=O)(=O)CCNC(=O)c1ccc(Nc2nc(NC3(c4ccc(Cl)cc4)CC3)nc(OCC(F)(F)F)n2)cc1 [Example 4003],0.5 to 100
21,CC(C)(C)OC(=O)N1CCC[C@H]1C(=O)NS(=O)(=O)CCNC(=O)c1ccc(Nc2nc(NC3(c4ccc(Cl)cc4)CC3)nc(OCC(F)(F)F)n2)cc1 [Example 4004],0.5 to 100
22,CC(C)(C)OC(=O)N1CCC(C(=O)NS(=O)(=O)CCNC(=O)c2ccc(Nc3nc(NC4(c5ccc(Cl)cc5)CC4)nc(OCC(F)(F)F)n3)cc2)CC1 [Example 4005],0.5 to 100
23,CC(C)(C)OC(=O)N1C[C@@H](NC(=O)c2ccc(Nc3nc(NC4(c5ccc(Cl)cc5)CC4)nc(OCC(F)(F)F)n3)cc2)C[C@@H]1C(=O)NS(=O)(=O)C1CC1 [Example 5000],0.5 to 100
24,CC(C)(C)OC(=O)N1C[C@@H](NC(=O)c2ccc(Nc3nc(NC4(c5ccc(Cl)cc5)CC4)nc(OCC(F)(F)F)n3)cc2)C[C@@H]1C(=O)NC1(C(=O)NS(=O)(=O)C2CC2)CC1 [Example 5002],0.5 to 100
25,"CC(C)S(=O)(=O)NC(=O)COc1ccc(C2(Nc3nc(Nc4ccc(C(=O)NCC5(CN6CCCC6)CC5)cc4)nc(OCC(F)(F)F)n3)CC2)cc1 [Example 6000, 4-(4-(1-(4-(2-(1-methylethylsulfonamido)-2-oxoethoxy)phenyl)cyclopropylamino)-6-(2,2,2-trifluoroethoxy)-1,3,5-triazin-2-ylamino)-N-((1-(pyrrolidin-1-ylmethyl)cyclopropyl)methyl)benzamide]",0.5 to 100
